Reference: US20040106802A1, “Novel compounds and therapeutic uses thereof” (TORRENT PHARMACEUTICALS LTD., priority 2002, published 2004)
Where “and” joins values, the source holds several entries; their conditions need not be identical. Equal values may be shown once. Where a name gives a salt, the structure may show the parent alone. Read-outs that look alike come from different tables or passages of the source.

Tests used:
Porcine DPP-IV = molecular target: T1, Porcine DPP-IV (Sus scrofa, UniProt P22411); assay: Assay of DPP-IV enzyme inhibitory activity (spectrophotometric, Gly-Pro-pNA cleavage); assay type: biochemical; conditions: Porcine DPP-IV, Gly-Pro-pNA substrate, 30° C., mean ± SD of three experiments except compound Nos. 133 & 139, read-out: IC50 (μM) Mean ± SD, inhibitory activity on DPP-IV enzyme activity
T1 construct: purchased Sigma-Aldrich Germany

nOSTZ diabetic rats = assay: Oral glucose tolerance test in neonatal streptozotocin-induced (nOSTZ) diabetic rats, oral drug; assay type: in vivo, Wistar rats; conditions: 22 mg/kg oral; for percent change in blood glucose from basal glucose level / peak glucose levels (% from basal level): glucose load 1 g/kg; for peak glucose levels (% from basal level): significantly lower than vehicle (157.07±14.17%); for glucose tolerance (in words): nOSTZ rats
Text: Effect of Compound no. 140 and Compound no. 142 on Oral Glucose Tolerance in Neonatel Streptozotocin-Induced (nO STZ) Diabetic Rats
Principle of Glucose Estimation by Glucometer (One Touch, Lifescan, USA)
Glucose and oxygen react in the presence of glucose oxidase yielding gluconic acid and hydrogen peroxide. Hydrogen peroxide subsequently oxidizes the dyes in a reaction mediated by Peroxidase producing a blue colored form of the dyes (Marks and Dawson, 1965). The intensity of the blue color is proportional to the glucose concentration in the sample.
Wistar rats were made type 2 diabetic by injecting streptozotocin (STZ) at the dose of 90 mg/kg intraperitoneally on the day of birth (nOSTZ) to male pups (Portha et al, 2001). Animals showing overnight fasted blood glucose levels between 7-10 mM at the age of 10-12 weeks were used for the study. On the day of the experiment, animals were fasted overnight with free access to water.
Oral Glucose Tolerance Test (OGTT) (Pospisilik et al, 2002)
External jugular vein of overnight fasted nOSTZ rats was cannulated using polyethylene cannula with heparinized (100 IU/ml) saline under ether anesthesia and exteriorized at the back of the neck. After the animal was recovered from the anesthesia, blood sample was drawn as marked as ‘−5 min’ sample and drug formulation (in 0.5% sodium caboxymethyl cellulose, Na-CMC) was administered orally at the volume of 1 ml/kg body weight.
5 min after drug administration, blood sample was drawn as ‘0 min’ sample and glucose load at the dose of 1 g/kg body weight was administered orally. Blood samples were drawn subsequently at 5, 10, 15, 20, 30, 45, 60, 75, 90, 120, 180, 240 and 360 min time interval. Blood glucose is measured using glucometer.
Animals were divided into three groups: 1. Vehicle (0.5% Na-CMC) treated, 2. Compound no. 140 treated (22 mg/kg) and 3. Compound no. 142 treated (22 mg/kg).
Change in blood glucose at various time points was measured as percent increase or decrease from basal glucose level. Area under the curve (AUC) for glucose was calculated using WinNonlin software.

[1] = In-vitro free radical scavenging activity using DPPH free radical; conditions: 30° C., 30 minutes, 515 nm
Procedure, shortened: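 Compound solutions in methanol (10, 1, 0.5, 0.25 and 0.125 mM before a 1:10 addition) were mixed with 10^−4M methanolic DPPH and held 30 min at 30 °C. Absorbance was read at 515 nm against a methanol blank. % antioxidant activity = 100 − (OD test/OD control × 100).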

[2] = system: STZ induced diabetic rats; assay: In vivo oral glucose tolerance study in nSTZ induced diabetic rats, i.v. drug; conditions: 8 mg/ml/kg i.v.
Protocol: In Vivo Oral Glucose Tolerance Studies
The anti-hyperglycemic effect of compound no. 95 (8 mg/ml/kg, i.v) after an oral glucose load of 1 gm/kg was studied in STZ induced diabetic rats (modified method of Balkan et al 1999).
Animals: Male STZ induced diabetic rats aged 10-12 weeks and weighing between 200-250 gm were used for the study. These rats were treated with streptozotocin administered intraperitoneally on the day of birth at a dose of 90 mg/kg. They were maintained under standard conditions till the age of 10-12 weeks when they were used for the study.
Materials: Glucose solution (1 gm/4 ml of saline), Diethyl ether compound no. 95 (8 mg/ml/kg), vehicle (1 ml/kg), Heparinized saline (100 IU/ml), glucometer and strips
Method: Animals were divided into two groups
Group I: 8 hours fasted rats were treated with compound no. 95 vehicle (1 ml/kg, i.v.) 5 min before administration of glucose load.
Group II: 8 hours fasted rats were treated with compound no. 95 (8 mg/ml/kg, i.v) 5 min before administration of glucose load.
In both groups, blood samples were taken before administration of vehicle/compound no. 95 and glucose load for blood glucose estimation. Blood glucose level before administration of compound no. 95 or its vehicle was considered as −5 min reading. Blood glucose level before administration of glucose was considered as 0 min reading.
After 10, 20, 30, 45, 60, 75, 90, 120, 150 and 180 min of glucose administration, blood glucose level was estimated by the glucose oxidase method using a LifeScan glucometer (Ca, USA). Blood glucose level at various time points was subtracted from the basal (0 min) reading. This was done to avoid changes in AUC because of variation in basal glucose level. The glucose excursion at various time points was plotted against time and the AUC was calculated.
The activity of compound no. 95 was expressed as % reduction in AUC as compared with that of its vehicle.

zucker fatty rats = conditions: cited from earlier work
DPP-IV = conditions: in vivo; cited from earlier work
[3] = in vivo; cited from earlier work

T1 sequence (P22411 whole entry): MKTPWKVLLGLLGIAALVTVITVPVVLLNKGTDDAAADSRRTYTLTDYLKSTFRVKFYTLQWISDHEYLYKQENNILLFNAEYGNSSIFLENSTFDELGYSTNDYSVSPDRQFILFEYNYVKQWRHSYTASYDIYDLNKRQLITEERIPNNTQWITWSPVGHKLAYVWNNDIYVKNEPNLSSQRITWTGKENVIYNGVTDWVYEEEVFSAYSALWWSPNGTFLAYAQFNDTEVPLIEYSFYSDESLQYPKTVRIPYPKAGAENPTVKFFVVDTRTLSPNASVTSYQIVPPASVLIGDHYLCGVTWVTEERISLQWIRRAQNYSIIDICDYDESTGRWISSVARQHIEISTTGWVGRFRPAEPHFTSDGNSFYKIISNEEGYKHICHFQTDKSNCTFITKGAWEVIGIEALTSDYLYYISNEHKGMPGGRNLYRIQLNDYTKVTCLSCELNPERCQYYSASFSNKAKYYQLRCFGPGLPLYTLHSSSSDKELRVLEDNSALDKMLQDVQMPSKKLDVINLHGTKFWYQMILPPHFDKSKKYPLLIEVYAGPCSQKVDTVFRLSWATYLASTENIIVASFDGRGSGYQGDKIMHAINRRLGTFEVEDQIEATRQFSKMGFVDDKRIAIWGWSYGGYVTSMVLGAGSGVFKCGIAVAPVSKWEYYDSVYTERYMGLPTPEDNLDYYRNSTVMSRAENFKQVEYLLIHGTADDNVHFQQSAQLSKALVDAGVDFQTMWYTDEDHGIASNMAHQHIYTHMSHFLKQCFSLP

With `Cl.N#CC1CCCN1C(=O)N(N)C1CCCCC1` (stereo not drawn) the melting point was 160 to 162 °C (dec.).

For `Cl.N#CC1CSCN1C(=O)N(N)C1CCCCC1` (stereo not drawn), the melting point was 166 to 168 °C (dec.).

In the case of `Cl.Cl.Cl.N#Cc1ccc(NC(=O)CN2CCC(N(N)CC(=O)N3CSCC3C#N)CC2)nc1` (stereo not drawn) [compound 140, 3-[1-oxo-2-(1-(1-(2-oxo-2-(5-cyanopyridin-2-yl)aminoethyl)piperidin-4-yl))hydrazino]ethyl-4-cyano thiazolidine, trihydrochloride], the IC50 (Porcine DPP-IV; trihydrochloride) is reported as 0.13 ± 0.03 µM, the “percent change in blood glucose from basal glucose level” value (from here on “percent change in blood glucose”) (nOSTZ diabetic rats; 0 min) is reported as 0.0 ± 0.0% and the “peak glucose levels (% from basal level)” value (nOSTZ diabetic rats) is reported as 99.19±17.87%. For the same compound, the “glucose tolerance (in words)” value (nOSTZ diabetic rats) was “improved glucose tolerance”, the “percent change in blood glucose” value (nOSTZ diabetic rats; 5 min) was 21.97 ± 1.14% and the “percent change in blood glucose” value (nOSTZ diabetic rats; 10 min) was 49.11 ± 11.7%. The “percent change in blood glucose” value (nOSTZ diabetic rats; 15 min) was 64.67 ± 10.17%, the “percent change in blood glucose” value (nOSTZ diabetic rats; 20 min) was 69.62 ± 12.73% and the “percent change in blood glucose” value (nOSTZ diabetic rats; 30 min) was 90.29 ± 22.93%. For the same compound, the “percent change in blood glucose” value (nOSTZ diabetic rats; 45 min) was 99.19 ± 17.87%, the “percent change in blood glucose” value (nOSTZ diabetic rats; 60 min) was 82.76 ± 16.22% and the “percent change in blood glucose” value (nOSTZ diabetic rats; 90 min) was 34.3 ± 20.32%. The “percent change in blood glucose” value (nOSTZ diabetic rats; 120 min) was −21.87 ± 25.68%, the “percent change in blood glucose” value (nOSTZ diabetic rats; 180 min) was −45.71 ± 18.48% and the “percent change in blood glucose” value (nOSTZ diabetic rats; 240 min) was −48.6 ± 13.58%. For the same compound, the “percent change in blood glucose” value (nOSTZ diabetic rats; 360 min) was −49.76 ± 10.31%.

For `N#CC1CSCN1C(=O)CN(N)C1CCN(CC(=O)Nc2ccc(Cl)cn2)CC1` (stereo not drawn) [Compound No. 95], the “% Activity (antioxidant, DPPH)” value ([1]; Concentration 12.5 μM, 12.5 µM) was 22.06%, the “% Activity (antioxidant, DPPH)” value ([1]; Concentration 25 μM, 25 µM) was 36.87% and the “% Activity (antioxidant, DPPH)” value ([1]; Concentration 50 μM, 50 µM) was 44.81%. For the same compound, the “% Activity (antioxidant, DPPH)” value ([1]; Concentration 100 μM, 100 µM) was 65.52%, the “Glucose excursions after a 1 gm/kg glucose load” value (“Glucose excursions” below) ([2]; 0 min) was 0.0 and the “AUC values mM * min of glucose excursion” value ([2]; 5 min before 1 gm/kg glucose load, Mean ± SD, P < 0.05 vs vehicle) was 413.3±134.6 mM * min and 413.3 ± 134.6a mM * min. For the same compound, the “effect on hyperglycemia (in words)” value ([2]; nSTZ induced diabetic rats) was “controls hyperglycemia and brings the glucose levels to normoglycemic range”, the “Glucose excursions” value ([2]; 10 min) was 3.9 and the “Glucose excursions” value ([2]; 20 min) was 5.9. For the same compound, the “Glucose excursions” value ([2]; 30 min) was 7.8, the “Glucose excursions” value ([2]; 45 min) was 6.2 and the “Glucose excursions” value ([2]; 60 min) was 4.1. For the same compound, the “Glucose excursions” value ([2]; 75 min) was 2.7, the “Glucose excursions” value ([2]; 90 min) was 0.5 and the “Glucose excursions” value ([2]; 120 min) was −2.8. For the same compound, the “Glucose excursions” value ([2]; 150 min) was −4.1 and the “Glucose excursions” value ([2]; 180 min) was −3.9.

In the case of `N#CC1CSCN1C(=O)CN(N)C1CCN(CC(=O)Nc2ccc(S(N)(=O)=O)cc2)CC1` (stereo not drawn) [compound 142, 3-[1-oxo-2-(1-(1-(2-oxo-2-(4-aminosulphonylphenyl)aminoethyl)piperidin-4-yl))hydrazino]ethyl-4-cyano thiazolidine, dihydrochloride], the IC50 (Porcine DPP-IV) is reported as 0.07 ± 0.01 µM, the “percent change in blood glucose” value (nOSTZ diabetic rats; 0 min) is reported as 0.0 ± 0.0% and the “peak glucose levels (% from basal level)” value (nOSTZ diabetic rats) is reported as 87.25±15.61%. For the same compound, the “glucose tolerance (in words)” value (nOSTZ diabetic rats) was “improved glucose tolerance”, the “percent change in blood glucose” value (nOSTZ diabetic rats; 5 min) was 9.79 ± 4.13% and the “percent change in blood glucose” value (nOSTZ diabetic rats; 10 min) was 29.41 ± 3.4%. The “percent change in blood glucose” value (nOSTZ diabetic rats; 15 min) was 46.51 ± 5.23%, the “percent change in blood glucose” value (nOSTZ diabetic rats; 20 min) was 56.51 ± 4.33% and the “percent change in blood glucose” value (nOSTZ diabetic rats; 30 min) was 77.93 ± 12.12%. For the same compound, the “percent change in blood glucose” value (nOSTZ diabetic rats; 45 min) was 87.25 ± 15.61%, the “percent change in blood glucose” value (nOSTZ diabetic rats; 60 min) was 67.33 ± 11.49% and the “percent change in blood glucose” value (nOSTZ diabetic rats; 90 min) was 67.45 ± 9.8%. For the same compound, the “percent change in blood glucose” value (nOSTZ diabetic rats; 120 min) was 31.4 ± 8.51%, the “percent change in blood glucose” value (nOSTZ diabetic rats; 180 min) was −48.05 ± 5.75% and the “percent change in blood glucose” value (nOSTZ diabetic rats; 240 min) was −58.87 ± 6.10%. The “percent change in blood glucose” value (nOSTZ diabetic rats; 360 min) was −63.57 ± 4.77%.

For `CC[C@H](C)[C@H](N)C(=O)N1CCSC1` [Isoleucine thiazolidide], the “glucose tolerance (in words)” value (zucker fatty rats) is listed as “improved glucose tolerance”.

For `CC(C)N(N)C(=O)N1CSCC1C#N.Cl` (stereo not drawn), the melting point was 148 to 150 °C (dec.).

For `N#Cc1ccc(NCCNCC(=O)N2CCC[C@H]2C#N)nc1` [NVP-DPP-728, 1-[-2-{(5-cyanopyridin-2-yl)amino}ethylamino]acetyl-2-cyano-(S)-pyrrolidine], the “insulin secretion and glucose tolerance (in words)” value (DPP-IV) is given as “improves insulin secretion and glucose tolerance”.

With `N#CC1CCCN1C(=O)C1CNCCN1.O=C(O)C(F)(F)F.O=C(O)C(F)(F)F` (stereo not drawn) [Compound No. 1, 2-Cyano-1-(piperazine-2-yl)-carbonyl pyrrolidine bis-trifluoroacetate] the IC50 (Porcine DPP-IV) was 47.6 ± 2.72 µM and the melting point was 126 to 128 °C.

For GLP-19-36, the “apparent half-life in the circulation” value [3] is listed as 4 to 5 min.
